According to patent US20020137929A1, “1 - (3-heterocyclylphenyl) isothiourea, -isourea, -guanidine and -amidine herbicidal agents” (Intellectual Property Department, BASF Aktiengesellschaft, priority 1998, published 2002):

Legend:
AMBEL (Ragweed, Common) [1] = test: Preemergence herbicidal evaluation; format: in vivo, Ambrosia artemisifolia; conditions: rated 4-5 weeks after treatment
Summary of the method: (§1)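 Sown cups got a single aqueous acetone spray of test compound (roughly 0.0156–0.500 kg/ha) before seedlings emerged. Evaluation, 4–5 weeks on, used a 0–9 visual scale covering plant stand, vigor, size, malformation, chlorosis and general appearance compared with controls.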

[2] = tested on: IPOHE (Morningglory, Ivyleaf); test: Postemergence herbicidal evaluation; format: in vivo, Ipomoea hederacea; conditions: postemergence
Summary of the method: (§2)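 Seedlings grown about two weeks were sprayed at 40 psi with compound dispersed in 50/50 acetone/water plus 0.5% TWEEN 20, at about 0.0156 to 0.500 kg/ha. Plants were kept in the greenhouse and scored 4–5 weeks later on a 0–9 visual scale against untreated controls.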

[3] = tested on: TRZAWR (Wheat, Winter, cv Riband); test: Postemergence herbicidal evaluation; format: in vivo, Triticum aestivum; conditions: postemergence
Summary of the method: as §2

ECHCG (Barnyardgrass) = test: Postemergence herbicidal evaluation; format: in vivo, Echinochloa crus-galli; conditions: postemergence
Summary of the method: as §2

[4] = tested on: GLXMAW (Soybean, Williams); test: Preemergence herbicidal evaluation; format: in vivo, Glycine max, (L.) Merr. cv Williams; conditions: rated 4-5 weeks after treatment
Summary of the method: as §1

[5] = tested on: IPOHE (Morningglory, Ivyleaf); test: Preemergence herbicidal evaluation; format: in vivo, Ipomoea hederacea; conditions: rated 4-5 weeks after treatment
Summary of the method: as §1

CASOB (Sicklepod) [6] = test: Preemergence herbicidal evaluation; format: in vivo, Cassia obtusifolia; conditions: rated 4-5 weeks after treatment
Summary of the method: as §1

[7] = tested on: CHEAL (Lambsquarters, Common); test: Postemergence herbicidal evaluation; format: in vivo, Chenopodium album; conditions: postemergence
Summary of the method: as §2

CASOB (Sicklepod) [8] = test: Postemergence herbicidal evaluation; format: in vivo, Cassia obtusifolia; conditions: postemergence
Summary of the method: as §2

[9] = tested on: GLXMAW (Soybean, Williams); test: Postemergence herbicidal evaluation; format: in vivo, Glycine max, (L.) Merr. cv Williams; conditions: postemergence
Summary of the method: as §2

ABUTH (Velvetleaf) = test: Preemergence herbicidal evaluation; format: in vivo, Abutilon theophrasti; conditions: rated 4-5 weeks after treatment
Summary of the method: as §1

ORYSAT (Rice, Tebonnet) = test: Preemergence herbicidal evaluation; format: in vivo, Oryza sativa, (L.) Tebonnet; conditions: rated 4-5 weeks after treatment
Summary of the method: as §1

AMBEL (Ragweed, Common) [10] = test: Postemergence herbicidal evaluation; format: in vivo, Ambrosia artemisifolia; conditions: postemergence
Summary of the method: as §2

[11] = tested on: SAGPY (Arrowhead (Pygmaea)); test: Preemergence weed control under flooded paddy conditions; format: in vivo, Sagittaria pygmaea; conditions: rated 3-4 weeks after treatment
Summary of the method: (§3)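 Herbicidal effect is scored visually on a 0-9 scale against an untreated control, three to four weeks after compounds are pipetted into the flood water (1.5 to 3 cm deep) over seeds planted in silt loam at 0.5 cm depth. Rates: about 0.0313 to 0.500 kg/ha.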

MOOVA (Monochoria) = test: as above; format: in vivo, Monochoria vaginalis; conditions: rated 3-4 weeks after treatment
Summary of the method: as §3

[12] = tested on: CHEAL (Lambsquarters, Common); test: Preemergence herbicidal evaluation; format: in vivo, Chenopodium album; conditions: rated 4-5 weeks after treatment
Summary of the method: as §1

Cn1c(C(F)(F)F)cc(=O)n(-c2cc(N=C3SCC(=O)N3Cc3ccco3)c(Cl)cc2F)c1=O [Compound 122, 3-{4-Chloro-2-fluoro-5-[(3-furfuryl-4-oxo-2-thiazolidinylidene)amino]phenyl}-1-methyl-6-(trifluoromethyl)-2,4(1H,3H)-pyrimidinedione]
Preemergence herbicidal rating AMBEL (AMBEL (Ragweed, Common) [1]; rate 0.0156 kg/ha): 0.0 | Preemergence herbicidal rating AMBEL (AMBEL (Ragweed, Common) [1]; rate 0.0313 kg/ha): 0.0 | Preemergence herbicidal rating AMBEL (AMBEL (Ragweed, Common) [1]; rate 0.0625 kg/ha): 0.0 | Preemergence herbicidal rating AMBEL (AMBEL (Ragweed, Common) [1]; rate 0.1250 kg/ha): 2.0 | Preemergence herbicidal rating AMBEL (AMBEL (Ragweed, Common) [1]; rate 0.2500 kg/ha): 2.0 | Preemergence herbicidal rating AMBEL (AMBEL (Ragweed, Common) [1]; rate 0.5000 kg/ha): 3.0 | herbicidal rating IPOHE ([2]; rate 0.0156 kg/ha): 9.0 | herbicidal rating IPOHE ([2]; rate 0.0313 kg/ha): 9.0 | herbicidal rating IPOHE ([2]; rate 0.0625 kg/ha): 9.0 | herbicidal rating IPOHE ([2]; rate 0.1250 kg/ha): 9.0 | herbicidal rating TRZAWR ([3]; rate 0.0156 kg/ha): 3.0 | herbicidal rating TRZAWR ([3]; rate 0.0313 kg/ha): 3.5 | herbicidal rating TRZAWR ([3]; rate 0.0625 kg/ha): 4.5 | herbicidal rating TRZAWR ([3]; rate 0.1250 kg/ha): 5.0 | herbicidal rating ECHCG (ECHCG (Barnyardgrass); rate 0.0156 kg/ha): 2.0 | herbicidal rating ECHCG (ECHCG (Barnyardgrass); rate 0.0313 kg/ha): 3.0 | herbicidal rating ECHCG (ECHCG (Barnyardgrass); rate 0.0625 kg/ha): 4.0 | herbicidal rating ECHCG (ECHCG (Barnyardgrass); rate 0.1250 kg/ha): 5.0 | Preemergence herbicidal rating GLXMAW ([4]; rate 0.0156 kg/ha): 0.0 | Preemergence herbicidal rating GLXMAW ([4]; rate 0.0313 kg/ha): 0.0 | Preemergence herbicidal rating GLXMAW ([4]; rate 0.0625 kg/ha): 1.0 | Preemergence herbicidal rating GLXMAW ([4]; rate 0.1250 kg/ha): 0.0 | Preemergence herbicidal rating GLXMAW ([4]; rate 0.2500 kg/ha): 0.0 | Preemergence herbicidal rating GLXMAW ([4]; rate 0.5000 kg/ha): 0.0 | Preemergence herbicidal rating IPOHE ([5]; rate 0.0156 kg/ha): 0.0 | Preemergence herbicidal rating IPOHE ([5]; rate 0.0313 kg/ha): 0.0 | Preemergence herbicidal rating IPOHE ([5]; rate 0.0625 kg/ha): 0.0 | Preemergence herbicidal rating IPOHE ([5]; rate 0.1250 kg/ha): 2.0 | Preemergence herbicidal rating IPOHE ([5]; rate 0.2500 kg/ha): 1.0 | Preemergence herbicidal rating IPOHE ([5]; rate 0.5000 kg/ha): 1.0 | Preemergence herbicidal rating CASOB (CASOB (Sicklepod) [6]; rate 0.0156 kg/ha): 0.0 | Preemergence herbicidal rating CASOB (CASOB (Sicklepod) [6]; rate 0.0313 kg/ha): 0.0 | Preemergence herbicidal rating CASOB (CASOB (Sicklepod) [6]; rate 0.0625 kg/ha): 0.0 | Preemergence herbicidal rating CASOB (CASOB (Sicklepod) [6]; rate 0.1250 kg/ha): 0.0 | Preemergence herbicidal rating CASOB (CASOB (Sicklepod) [6]; rate 0.2500 kg/ha): 0.0 | Preemergence herbicidal rating CASOB (CASOB (Sicklepod) [6]; rate 0.5000 kg/ha): 3.0 | herbicidal rating CHEAL ([7]; rate 0.0156 kg/ha): 6.0 | herbicidal rating CHEAL ([7]; rate 0.0313 kg/ha): 9.0 | herbicidal rating CHEAL ([7]; rate 0.0625 kg/ha): 9.0 | herbicidal rating CHEAL ([7]; rate 0.1250 kg/ha): 9.0 | herbicidal rating CASOB (CASOB (Sicklepod) [8]; rate 0.0156 kg/ha): 1.0 | herbicidal rating CASOB (CASOB (Sicklepod) [8]; rate 0.0313 kg/ha): 3.0 | herbicidal rating CASOB (CASOB (Sicklepod) [8]; rate 0.0625 kg/ha): 3.0 | herbicidal rating CASOB (CASOB (Sicklepod) [8]; rate 0.1250 kg/ha): 4.0 | herbicidal rating GLXMAW ([9]; rate 0.0156 kg/ha): 5.5 | herbicidal rating GLXMAW ([9]; rate 0.0313 kg/ha): 6.5 | herbicidal rating GLXMAW ([9]; rate 0.0625 kg/ha): 6.5 | herbicidal rating GLXMAW ([9]; rate 0.1250 kg/ha): 6.5 | Preemergence herbicidal rating ABUTH (ABUTH (Velvetleaf); rate 0.0156 kg/ha): 0.0 | Preemergence herbicidal rating ABUTH (ABUTH (Velvetleaf); rate 0.0313 kg/ha): 0.0 | Preemergence herbicidal rating ABUTH (ABUTH (Velvetleaf); rate 0.0625 kg/ha): 4.0 | Preemergence herbicidal rating ABUTH (ABUTH (Velvetleaf); rate 0.1250 kg/ha): 9.0 | Preemergence herbicidal rating ABUTH (ABUTH (Velvetleaf); rate 0.2500 kg/ha): 9.0 | Preemergence herbicidal rating ABUTH (ABUTH (Velvetleaf); rate 0.5000 kg/ha): 9.0 | Preemergence herbicidal rating ORYSAT (ORYSAT (Rice, Tebonnet); rate 0.0156 kg/ha): 0.0 | Preemergence herbicidal rating ORYSAT (ORYSAT (Rice, Tebonnet); rate 0.0313 kg/ha): 0.0 | Preemergence herbicidal rating ORYSAT (ORYSAT (Rice, Tebonnet); rate 0.0625 kg/ha): 0.0 | Preemergence herbicidal rating ORYSAT (ORYSAT (Rice, Tebonnet); rate 0.1250 kg/ha): 0.0 | Preemergence herbicidal rating ORYSAT (ORYSAT (Rice, Tebonnet); rate 0.2500 kg/ha): 0.0 | Preemergence herbicidal rating ORYSAT (ORYSAT (Rice, Tebonnet); rate 0.5000 kg/ha): 1.0 | herbicidal rating AMBEL (AMBEL (Ragweed, Common) [10]; rate 0.0156 kg/ha): 7.0 | herbicidal rating AMBEL (AMBEL (Ragweed, Common) [10]; rate 0.0313 kg/ha): 9.0 | herbicidal rating AMBEL (AMBEL (Ragweed, Common) [10]; rate 0.0625 kg/ha): 9.0 | herbicidal rating AMBEL (AMBEL (Ragweed, Common) [10]; rate 0.1250 kg/ha): 9.0 | herbicidal effect rating, SAGPY ([11]; 0.0313 kg/ha): 2.0 | herbicidal effect rating, SAGPY ([11]; 0.0625 kg/ha): 3.0 | herbicidal effect rating, SAGPY ([11]; 0.1250 kg/ha): 5.0 | herbicidal effect rating, SAGPY ([11]; 0.2500 kg/ha): 6.0 | herbicidal effect rating, MOOVA (MOOVA (Monochoria); 0.0313 kg/ha): 8.0 | herbicidal effect rating, MOOVA (MOOVA (Monochoria); 0.0625 kg/ha): 9.0 | herbicidal effect rating, MOOVA (MOOVA (Monochoria); 0.1250 kg/ha): 9.0 | herbicidal effect rating, MOOVA (MOOVA (Monochoria); 0.2500 kg/ha): 9.0 | Preemergence herbicidal rating CHEAL ([12]; rate 0.0156 kg/ha): 9.0 | Preemergence herbicidal rating CHEAL ([12]; rate 0.0313 kg/ha): 9.0 | Preemergence herbicidal rating CHEAL ([12]; rate 0.0625 kg/ha): 7.0 | Preemergence herbicidal rating CHEAL ([12]; rate 0.1250 kg/ha): 9.0 | Preemergence herbicidal rating CHEAL ([12]; rate 0.2500 kg/ha): 9.0 | Preemergence herbicidal rating CHEAL ([12]; rate 0.5000 kg/ha): 9.0
